Here are results for 1 molecule from US20230093162A1, “FATTY LIVER AND LIVER FIBROSIS EVALUATION SYSTEM BASED ON IMPEDANCE” (KOREA RESEARCH INSTITUTE OF CHEMICAL TECHNOLOGY, priority 2018, published 2023).

This data set relates to liver microtissue (MT) of HepaRG hepatocyte strain. Kind of data set: Evaluation of drug induced fatty liver toxicity by impedance of liver microtissue. The data set is classed as cell-based. Particulars: 0.5 M oleic acid. As to the method: 1. Completely differentiated HepaRG hepatocyte strain was obtained at the density of 4,000,000 cells/100 uL.
2. A sample was prepared according to the manual of C253000 provided by Microfit Co. 10 μL of cell suspension #1 was distributed in each well to allow 400,000 HepaRG cells to be placed per well. This step can be performed using a 3D cell preparation method such as a micropattern plate method or a hanging drop method.
3. The cells were cultured for 3 days and the cell culture medium was replaced every day.
4. On day 4, the microtissue (MT) was distributed in a 96-well plate (Ultra-Low attachment surface multiple well plate, Corning) using a 100 uL blue tip.
5a. The liver microtissue (MT) distributed in the Ultra-Low attachment surface multiple well plate was treated with 0.5 M oleic acid, a fatty liver toxicity inducing drug.
6a. A 200 μL pipette was inserted in the end of the first glass tube of Example 1 and the liver microtissue (MT) and the culture medium were sucked through the other end to fill the glass tube with preventing air bubble formation.
7a. The glass tube was inserted between the two Y tubes (third tube and fourth tube) of Example 1 and Example 4 with preventing air bubble formation.
8a. Air bubbles in the liquid were removed and let the wire of each Y tube shared the same liquid.
9a. The working electrode/sensing electrode of the potentiostat or impedance analyzer was connected to the gold (Au) wire protruding out of the Y tube (iii tube) and the reference/counter electrode was connected to the platinum (Pt) wire protruding out of the other Y tube (III tube).
10a. The liver microtissue (MT) was placed at the end of the plastic tip by using a 1 mL syringe.
11a. The pressure was set at −5 mPa by using the syringe pump and the liver microtissue (MT) was fixed at the plastic tip by the pressure difference.
12a. Alternating current impedance was measured at a fixed voltage of 50 mV from 10^6 Hz to 10^−2 Hz to measure the impedance of the liver microtissue (MT) and the PBS buffer.
13a. The pressure of the syringe pump was set at 10 mPa to allow the liver microtissue (MT) to be removed from the plastic tip.
14a. Impedance was measured at a fixed voltage of 50 mV from 10^6 Hz to 10^−2 Hz to measure the impedance of the PBS buffer (background).
15a. The interior resistance, the exterior resistance and the capacitance of 12a and the resistance and the capacitance of 14a were measured by using a Fitting program (e.g. Zview).
16a. The interior resistance, the exterior resistance and the capacitance of the liver microtissue (MT) were compared with those of the normal control group. At that time, the normal control group indicates the liver microtissue (MT) not treated with oleic acid which was regarded as a fatty liver toxicity inducing drug.
17a. […]

In the case of `CCCCCCCC/C=C\CCCCCCCC(=O)O` [oleic acid], the “fat formation in the liver microtissue (MT)” value is reported as “fat was formed”. The “impedance of the liver microtissue (MT)” value (compared with the normal control group, FIG. 2a, 2b, 3) is “increased”. Moreover, the “resistance of the liver microtissue (MT)” value (compared with the normal control group, according to the pressure changes, FIG. 3) was “increased”. In addition, the “internal resistance of the liver microtissue (MT)” value (fitted with Zview, compared with normal control) is recorded as “increased”.
